Measurements reported in US20240409662A1, “ANTIBODY MASKS AND USES THEREOF” (Vibrant Pharma Limited, priority 2021, published 2024).
Like-named read-outs stand apart in the source and are kept apart here. No end group written: not given here.

What was measured:
[1] = tested on: SP34; assay: BLI binding of SP34 to CD3ε1-27 mutant fusion proteins; conditions: FIG. 2B
Method: (§1) Measurement of bindings between CD3ε1-27 mutants-SP34 fusion, or M-TCE, and […] was conducted as described above but with AHC sensors to capture M-TCE, and […] was used as the analyte.
In some embodiment, binding of SP34 to the second batch of 42 variants of […] mutant fusion proteins were tested by BLI with a ForteBio Red96 as described above.

[2] = tested on: SP34; assay: Masking capability of potential masks of SP34 (ELISA, BLI); assay type: binding; conditions: mask and linker fused to SP34 VH and/or VL
Method: (§2) Binding of the 19 M-TCEs to both their antigens CEACAM5 and CD3δε was assessed with BLI using ForteBio Red96 as described above.

[3] = molecular target: T1, MMP9 (Homo sapiens, UniProt P14780); assay: Removal of masks by MMP9 digestion, SDS-PAGE; assay type: biochemical; conditions: 100 nM activated MMP9, 37° C., 3 hr
T1 construct: purchased Acrobiosystems
T1 sequence (P14780 107-707 limits assumed): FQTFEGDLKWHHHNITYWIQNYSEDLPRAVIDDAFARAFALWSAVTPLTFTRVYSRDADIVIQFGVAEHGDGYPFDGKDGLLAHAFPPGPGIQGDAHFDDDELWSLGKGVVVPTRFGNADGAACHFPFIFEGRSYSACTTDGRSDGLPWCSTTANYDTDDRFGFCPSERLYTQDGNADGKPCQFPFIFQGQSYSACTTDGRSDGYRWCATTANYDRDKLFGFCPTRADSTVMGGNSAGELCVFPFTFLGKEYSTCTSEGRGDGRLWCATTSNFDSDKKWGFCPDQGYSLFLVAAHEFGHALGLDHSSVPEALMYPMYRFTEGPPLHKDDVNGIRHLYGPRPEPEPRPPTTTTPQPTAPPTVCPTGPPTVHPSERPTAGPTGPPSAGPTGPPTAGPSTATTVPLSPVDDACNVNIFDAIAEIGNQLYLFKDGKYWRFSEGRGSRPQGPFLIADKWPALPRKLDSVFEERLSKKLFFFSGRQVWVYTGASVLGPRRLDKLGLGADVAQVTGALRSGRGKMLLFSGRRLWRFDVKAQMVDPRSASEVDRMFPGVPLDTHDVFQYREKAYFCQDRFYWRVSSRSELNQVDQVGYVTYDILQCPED
Method: MMP9 proenzyme (proMMP9), purchased from Acrobiosystems, was dissolved to 100 μg/mL in MMP9 digestion buffer (50 mM Tris, 10 mM CaCl2), 150 mM NaCl, pH 7.6). 4-aminophenylmercuric acetate (APMA) was added to a final concentration of 1 mM. The proMMP9-APMA mixture was incubated at 37° C. for 24 hr to activate proMMP9.
The selected M-TCEs, after adjusting to MMP9 digestion buffer, was mixed with activated MMP9 to a final concentration of 100 nM. The samples were further incubated at 37° C. for 3 hr to allow M-TCEs to be digested by MMP9.
The M-TCEs with 14 AA, 16 AA and 18 AA linker could be completely or nearly completely digested, as only the faster migrating bands could be seen. […] Too short linker would make the removal of the masks difficult, probably because the employed enzyme, MMP9 in this case, could not fully engage with its digestion site in the M-TCEs.

[4] = tested on: HT29 cells; assay: PBMC co-cultivation assay, M-TCE-induced killing of HT29 cells; assay type: cell-based, human; conditions: for EC50: HT29 + human PBMC, 72 hours, read-out: Efficacy (EC50); for tumor cell killing efficacy: digested vs undigested, in words; for Digested vs. masked: ratio of EC50 non-digested to MMP9-digested
Method: Five digested and undigested M-TCEs were tested for their tumor cell killing capability in the presence of human PBMC.
A total of 5×10^3 cells in RPMI1640 medium (supplemented with 10% FBS and 2 mM glutamine) of the target cell line (HT29) were seeded in 96-well plates (Day 0). A dilution series of respective antibodies was performed in assay media and added to target cells. On Day 0, a total of 5×10^4 PBMCs were added to each well, and the final reaction volume was adjusted to 200 μl. Percentage viability of target cell was measured by […]. LDH was measured after 72 hours using the Cell Counting Kit-8 (CK04, Dojindo, Japan) according to the manufacturer's recommendations. The results were analyzed as mean and standard deviation (SD) from triplicate wells and plotted as 4-parameter non-linear regression fittings using GraphPad Prism 9 software (GraphPad Software, San Diego, CA, USA).

[5] = molecular target: CD3δε (Homo sapiens, UniProt P07766); assay: BLI binding of M-TCEs (captured on AHC sensors) to CD3δε; parameters: purchased ACRO (Beijing, China)
CD3δε, sequence (P07766 22-126 limits assumed): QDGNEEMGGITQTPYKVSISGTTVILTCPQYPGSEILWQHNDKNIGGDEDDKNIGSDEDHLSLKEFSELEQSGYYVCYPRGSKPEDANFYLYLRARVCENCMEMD
CD3δε, sequence (P04234 22-105 partner limits assumed): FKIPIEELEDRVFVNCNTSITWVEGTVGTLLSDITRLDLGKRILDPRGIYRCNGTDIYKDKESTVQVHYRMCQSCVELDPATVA
Method: Bio-Layer Interferometry (BLI) technique was employed for the measurement of protein-protein interactions in this study. A Octet Red96 system and Streptavidin (SA) or AHC biosensors (ForteBio, Fremont) were utilized.
as §1, §2

[6] = molecular target: T2, CD3 on human PBMC (human, UniProt P07766 23-207); assay: cell-based or functional assay
T2 sequence (P07766 23-207): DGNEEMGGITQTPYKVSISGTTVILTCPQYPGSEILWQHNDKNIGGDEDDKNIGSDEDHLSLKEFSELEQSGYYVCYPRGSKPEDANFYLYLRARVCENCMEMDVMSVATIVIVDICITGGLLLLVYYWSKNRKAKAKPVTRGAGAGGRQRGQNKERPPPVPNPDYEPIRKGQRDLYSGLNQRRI

[7] = molecular target: T2, CD3 on human PBMC; assay: cell-based or functional assay; remark: listed apart in the source

Row | Molecule | binding of SP34 to fusion protein [1] | Masking Capability [2] | digestion by MMP9 [3] | EC50 ([4]; MMP9-digested) | EC50 ([4]; Non-digested) | tumor cell killing efficacy [4] | Digested vs. masked [4] | further results
1 | G3R: G3R mutant of the CD3ε1-27-Fc fusion protein | maintained binding |  |  |  |  |  |  | 
2 | Q1C: Q1C mutant of the CD3ε1-27-Fc fusion protein | maintained binding |  |  |  |  |  |  | 
3 | L4-G3A: M-TCE; QDANEEGSGSPLGLGSGS-SP34VH, SEQ ID NO 39 |  | Yes | partially digested | 0.012 nM | 1.72 nM | could induce tumor cell killing both before and after MMP9 digestion | 144× | efficacy lower before mask removal ([4]; before vs after MMP9 digestion): ~140 fold; EC50 of MMP9-digested M-TCE relative to unmasked TCE ([4]; vs SP34-CEA): approximately 10 fold; binding to CD3δε ([5]; after MMP9 digestion): largely restored the binding
4 | L2-G3R: M-TCE; QDRNEEGSPLGLGS-SP34VH, SEQ ID NO 43 |  | Yes | could not be digested |  |  |  |  | binding to CD3δε ([5]; non-digested (masked), compared with non-masked TCE): lack of masking capability
5 | L4-D2E: M-TCE; QEGNEEGSGSPLGLGSGS-SP34VH, SEQ ID NO 27 |  | Yes | partially digested | 0.011 nM | 0.65 nM | higher efficacy in inducing tumor cell killing than their undigested counterparts | 59× | 
6 | MMP9-digested L4-G3A (bispecific antibody, not shown: small tags and cut ends) heavy: EVKLLESGGGLVQPKGSLKLSCAASGFTFNTYAMNWVRQAPGKGLEWVARIRSKYNNYATYYADSVKDRFTISRDDSQSILYLQMNNLKTEDTAMYYCVRHGNFGNSYVSWFAYWGQGTLVTVSS light: QAVVTQESALTTSPGETVTLTCRSSTGAVTTSNYANWVQEKPDHLFTGLIGGTNKRAPGVPARFSGSLIGDKAALTITGAQTEDEAIYFCALWYSNLWVFGGGTKVEIK EVQLVESGGGFVQAGESLTLSCTSSTLTFTPYRMAWYRQAPGKQRDLVADISSGDGRTTNYADFAKGRFTISRDNIKNTVFLRMTNLKPEDTAVYYCNTFVSFVGIARSWGQGTQVTVSSESKYGPPCPPCPAPEAAGGPSVFLFPPKPKDTLMISRTPEVTCVVVDVSQEDPEVQFNWYVDGVEVHNAKTKPREEQFNSTYRVVSVLTVLHQDWLNGKEYKCKVSNKGLPSSIEKTISKAKGQPREPQVCTLPPSQEEMTKNQVSLSCAVKGFYPSDIAVEWESNGQPENNYKTTPPVLDSDGSFFLVSRLTVDKSRWQEGNVFSCSVMHEALHNRFTQKSLSLSL |  |  |  |  |  |  |  | killing EC50 of MMP9-digested M-TCE against that of unmasked TCE SP34-CEA [6]: ~10 fold; EC50 of M-TCE-induced killing of HT29 cells in the presence of human PBMC [7]: 0.012 nM
